# Species: Rattus norvegicus
# Assay: Open TG-GATES - Regimen: Daily Repeat
# Type: toxicity, organism-based, Sprague-Dawley
# Set-up: regimen Daily Repeat, gender Male, age 6 weeks
# Conditions: in vivo, po, 10 mg/kg, route gavage, dose level Middle; for APTT / Bas / Eos / Fbg / Hb / Ht / Lym / MCH / MCHC / MCV / Mono / Neu / PT / Plat / RBC / Ret / WBC: tissue Blood; for KIDNEY_L / KIDNEY_R / KIDNEY_TOTAL: tissue Kidney; for LIVER: tissue Liver; for A/G / ALP / ALT / AST / BUN / CRE / Ca / Cl / DBIL / GLC / IP / K / LDH / Na / PL / RALB / TBIL / TC / TG / TP / gamma-GTP: tissue Plasma
smiles,measurement,setting,value
C=CCO [ALLYL ALCOHOL],TERMINAL_BW,"72 h, time 3 day",233.1 g
same,APTT,"72 h, time 3 day",20.8 s
same,Bas,"72 h, time 3 day",0%
same,Eos,"72 h, time 3 day",0.6%
same,Fbg,"72 h, time 3 day",233.2 mg/dL
same,Hb,"72 h, time 3 day",13.9 g/dL
same,Ht,"72 h, time 3 day",40.8%
same,Lym,"72 h, time 3 day",77.4%
same,MCH,"72 h, time 3 day",20.6 pg
same,MCHC,"72 h, time 3 day",33.9%
same,MCV,"72 h, time 3 day",60.7 fL
same,Mono,"72 h, time 3 day",3.6%
same,Neu,"72 h, time 3 day",17.8%
same,PT,"72 h, time 3 day",11.7 s
same,Plat,"72 h, time 3 day",133.2 x10_4/uL
same,RBC,"72 h, time 3 day",672.8 x10_4/ul
same,Ret,"72 h, time 3 day",5.1%
same,WBC,"72 h, time 3 day",116 x10_2/uL
same,KIDNEY_L,"72 h, time 3 day",1 g
same,KIDNEY_R,"72 h, time 3 day",1 g
same,KIDNEY_TOTAL,"72 h, time 3 day",2.1 g
same,LIVER,"72 h, time 3 day",11.2 g
same,A/G,"72 h, time 3 day",1.6
same,ALP,"72 h, time 3 day",921.4 IU/L
same,ALT,"72 h, time 3 day",35.2 IU/L
same,AST,"72 h, time 3 day",67.6 IU/L
same,BUN,"72 h, time 3 day",14 mg/dL
same,CRE,"72 h, time 3 day",0.4 mg/dL
same,Ca,"72 h, time 3 day",10.7 mg/dL
same,Cl,"72 h, time 3 day",103 meq/L
same,DBIL,"72 h, time 3 day",0.066 mg/dL
same,GLC,"72 h, time 3 day",207.8 mg/dL
same,IP,"72 h, time 3 day",6.6 mg/dL
same,K,"72 h, time 3 day",3.9 meq/L
same,LDH,"72 h, time 3 day",226 IU/L
same,Na,"72 h, time 3 day",140.2 meq/L
same,PL,"72 h, time 3 day",142 mg/dL
same,RALB,"72 h, time 3 day",3.3 g/dL
same,TBIL,"72 h, time 3 day",0.1 mg/dL
same,TC,"72 h, time 3 day",78 mg/dL
same,TG,"72 h, time 3 day",78 mg/dL
same,TP,"72 h, time 3 day",5.3 g/dL
same,gamma-GTP,"72 h, time 3 day",1 IU/L
same,TERMINAL_BW,"[…], time 7 day",267.6 g
same,TERMINAL_BW,"[…], time 14 day",329.3 g
same,TERMINAL_BW,"[…], time 28 day",403.7 g
same,APTT,"[…], time 7 day",18.2 s
same,Bas,"[…], time 7 day",0%
same,Eos,"[…], time 7 day",0.8%
same,Fbg,"[…], time 7 day",219 mg/dL
same,Hb,"[…], time 7 day",13.5 g/dL
same,Ht,"[…], time 7 day",39.7%
same,Lym,"[…], time 7 day",82.6%
same,MCH,"[…], time 7 day",20.5 pg
same,MCHC,"[…], time 7 day",34%
same,MCV,"[…], time 7 day",60.2 fL
same,Mono,"[…], time 7 day",2.6%
same,Neu,"[…], time 7 day",13.4%
same,PT,"[…], time 7 day",12 s
same,Plat,"[…], time 7 day",137.3 x10_4/uL
same,RBC,"[…], time 7 day",661 x10_4/ul
same,Ret,"[…], time 7 day",4.5%
same,WBC,"[…], time 7 day",128.8 x10_2/uL
same,APTT,"[…], time 14 day",19.2 s
same,Bas,"[…], time 14 day",0%
same,Eos,"[…], time 14 day",1%
same,Fbg,"[…], time 14 day",225.8 mg/dL
same,Hb,"[…], time 14 day",14.3 g/dL
same,Ht,"[…], time 14 day",41.2%
same,Lym,"[…], time 14 day",77.8%
same,MCH,"[…], time 14 day",20.4 pg
same,MCHC,"[…], time 14 day",34.7%
same,MCV,"[…], time 14 day",58.8 fL
same,Mono,"[…], time 14 day",3%
same,Neu,"[…], time 14 day",17.8%
same,PT,"[…], time 14 day",11.8 s
same,Plat,"[…], time 14 day",134 x10_4/uL
same,RBC,"[…], time 14 day",700.4 x10_4/ul
same,Ret,"[…], time 14 day",4.5%
same,WBC,"[…], time 14 day",123.8 x10_2/uL
same,APTT,"[…], time 28 day",20 s
same,Bas,"[…], time 28 day",0%
same,Eos,"[…], time 28 day",1%
same,Fbg,"[…], time 28 day",225.2 mg/dL
same,Hb,"[…], time 28 day",15.2 g/dL
same,Ht,"[…], time 28 day",44%
same,Lym,"[…], time 28 day",80.8%
same,MCH,"[…], time 28 day",19.6 pg
same,MCHC,"[…], time 28 day",34.5%
same,MCV,"[…], time 28 day",57 fL
same,Mono,"[…], time 28 day",1.6%
same,Neu,"[…], time 28 day",15.6%
same,PT,"[…], time 28 day",12 s
same,Plat,"[…], time 28 day",108.6 x10_4/uL
same,RBC,"[…], time 28 day",772.6 x10_4/ul
same,Ret,"[…], time 28 day",3%
same,WBC,"[…], time 28 day",116.6 x10_2/uL
same,KIDNEY_L,"[…], time 7 day",1.1 g
same,KIDNEY_R,"[…], time 7 day",1.1 g
same,KIDNEY_TOTAL,"[…], time 7 day",2.2 g
same,KIDNEY_L,"[…], time 14 day",1.3 g
same,KIDNEY_R,"[…], time 14 day",1.3 g
same,KIDNEY_TOTAL,"[…], time 14 day",2.6 g
same,KIDNEY_L,"[…], time 28 day",1.4 g
same,KIDNEY_R,"[…], time 28 day",1.4 g
same,KIDNEY_TOTAL,"[…], time 28 day",2.8 g
same,LIVER,"[…], time 7 day",12.3 g
same,LIVER,"[…], time 14 day",15 g
same,LIVER,"[…], time 28 day",17.1 g
same,A/G,"[…], time 7 day",1.5
same,ALP,"[…], time 7 day",970.4 IU/L
same,ALT,"[…], time 7 day",36 IU/L
same,AST,"[…], time 7 day",66 IU/L
same,BUN,"[…], time 7 day",14.4 mg/dL
same,CRE,"[…], time 7 day",0.4 mg/dL
same,Ca,"[…], time 7 day",10.8 mg/dL
same,Cl,"[…], time 7 day",102.2 meq/L
same,DBIL,"[…], time 7 day",0.06 mg/dL
same,GLC,"[…], time 7 day",202.6 mg/dL
same,IP,"[…], time 7 day",6.7 mg/dL
same,K,"[…], time 7 day",3.8 meq/L
same,LDH,"[…], time 7 day",205.8 IU/L
same,Na,"[…], time 7 day",140.8 meq/L
same,PL,"[…], time 7 day",143.4 mg/dL
same,RALB,"[…], time 7 day",3.3 g/dL
same,TBIL,"[…], time 7 day",0.1 mg/dL
same,TC,"[…], time 7 day",73.8 mg/dL
same,TG,"[…], time 7 day",75.6 mg/dL
same,TP,"[…], time 7 day",5.5 g/dL
same,gamma-GTP,"[…], time 7 day",0.8 IU/L
same,A/G,"[…], time 14 day",1.4
same,ALP,"[…], time 14 day",736 IU/L
same,ALT,"[…], time 14 day",33.8 IU/L
same,AST,"[…], time 14 day",59.6 IU/L
same,BUN,"[…], time 14 day",15.8 mg/dL
same,CRE,"[…], time 14 day",0.4 mg/dL
same,Ca,"[…], time 14 day",10.7 mg/dL
same,Cl,"[…], time 14 day",100.8 meq/L
same,DBIL,"[…], time 14 day",0.076 mg/dL
same,GLC,"[…], time 14 day",232.4 mg/dL
same,IP,"[…], time 14 day",6.6 mg/dL
same,K,"[…], time 14 day",3.5 meq/L
same,LDH,"[…], time 14 day",211.4 IU/L
same,Na,"[…], time 14 day",139.8 meq/L
same,PL,"[…], time 14 day",148.8 mg/dL
same,RALB,"[…], time 14 day",3.3 g/dL
same,TBIL,"[…], time 14 day",0.1 mg/dL
same,TC,"[…], time 14 day",74 mg/dL
same,TG,"[…], time 14 day",110.4 mg/dL
same,TP,"[…], time 14 day",5.7 g/dL
same,gamma-GTP,"[…], time 14 day",1 IU/L
same,A/G,"[…], time 28 day",1.4
same,ALP,"[…], time 28 day",568 IU/L
same,ALT,"[…], time 28 day",33.6 IU/L
same,AST,"[…], time 28 day",60.2 IU/L
same,BUN,"[…], time 28 day",15.6 mg/dL
same,CRE,"[…], time 28 day",0.5 mg/dL
same,Ca,"[…], time 28 day",10.7 mg/dL
same,Cl,"[…], time 28 day",102.6 meq/L
same,DBIL,"[…], time 28 day",0.084 mg/dL
same,GLC,"[…], time 28 day",221 mg/dL
same,IP,"[…], time 28 day",6 mg/dL
same,K,"[…], time 28 day",3.6 meq/L
same,LDH,"[…], time 28 day",205.2 IU/L
same,Na,"[…], time 28 day",140.6 meq/L
same,PL,"[…], time 28 day",142.4 mg/dL
same,RALB,"[…], time 28 day",3.6 g/dL
same,TBIL,"[…], time 28 day",0.1 mg/dL
same,TC,"[…], time 28 day",70.8 mg/dL
same,TG,"[…], time 28 day",104.6 mg/dL
same,TP,"[…], time 28 day",6.2 g/dL
same,gamma-GTP,"[…], time 28 day",1 IU/L

# — ChEMBL document CHEMBL3885861, “Open TG-GATES”
